In series [1] the test system is Escherichia coli ATCC 35218. In words: MIC, broth microdilution, normal MH medium. The series is classed as cell-based. The conditions noted are these: Escherichia coli, ATCC35218, quality control strain, read-out: Antibacterial activity MIC, Escherichia coli ATCC 35218. The procedure:
(§1) Strain for quality control: Escherichia coli ATCC35218, purchased from National Center of Clinical Laboratory.
(§2) Medium: MH liquid medium (OXOID).
(§3) Culture condition: cells were incubated at 35-37° C. for 16-18 h.
(§4) The broth microdilution method recommended by Clinical and Laboratory Standards Institute (CLSI), Performance Standards for Antimicrobial Susceptibility Testing; Twenty-Third Informational Supplement, M02-All, M07-A9 and M11-A8, 2013 was used to determine the MIC value of each test sample against each test strain in the normal MH medium and iron-deficient MH medium.
(§5) After diluting each sample to different concentrations with normal MH medium, 100 μl of each test sample solution at different concentrations was separately aspirated onto a 96-well sterile polystyrene plate. Drug solutions were added to the 1st to 10th well with the final concentrations of 16, 8, 4, 2, 1, 0.5, 0.25, 0.125, 0.06, and 0.03 mg/L in each well, respectively. The 11th well, as a blank control, was not added with drugs and bacteria. The 12th well, as a bacterial growth control, was added with bacteria but no drug.
(§6) The test bacterial liquid was adjusted to a bacterial suspension of 0.5 Mcfarland standard with physiological saline, and diluted with MH broth at 1:100, and then added to the drug solution so that a final concentration of the bacterial liquid was approximately 10^4 CFU/ml; 100 μl of the bacterial liquid was further added to each of the above wells (the total volume in each well is 200 μl), which was sealed and placed in a 35-37° C. incubator for 18-20 h for testing the result. The OD600 value was measured by a microplate reader, Minimal Inhibitory Concentration (MIC) of a drug is the lowest concentration of the drug which prevents growth of bacteria in the wells. 1.2.2 MIC in iron-deficient MH medium

Series [2] deals with Acinetobacter baumannii (4 strains). Kind of series: MIC, broth microdilution, normal MH medium. The series is classed as cell-based. The conditions noted are these: Acinetobacter baumannii, read-out: Antibacterial activity MIC, Acinetobacter baumarmii (4 strains). How it is done: (§7) Supplier of the strains: all of the above strains were provided by Sichuan Primed Shines Bio-tech Co., Ltd. A single colony was isolated by streaking on agar plates for each strain prior to the experiment, and the cells freshly cultured at 37° C. overnight were appropriately diluted for the experiment.
as §2, §3, §4, §5, §6

The subject of series [3] is Escherichia coli (4 strains). Kind of series: MIC, broth microdilution, normal MH medium. The series is classed as cell-based. The procedure:
as §7, §2, §3, §4, §5, §6

Series [4] relates to Pseudomonas aeruginosa (4 strains). Kind of series: MIC, broth microdilution, normal MH medium. The series is classed as cell-based. The settings on record: Pseudomonas aeruginosa, multidrug-resistant clinical isolates (integrator I, IMP4), read-out: Antibacterial activity MIC, Pseudomonas aeruginosa (4 strains). How it is done:
as §7, §2, §3, §4, §5, §6

Series [5] has as its system Klebsiella pneumoniae (4 strains). In words: MIC, broth microdilution, normal MH medium. The series is classed as cell-based. The procedure: as §7, §2, §3, §4, §5
The OD600 value was measured by a microplate reader, Minimal Inhibitory Concentration (MIC) of a drug is the lowest concentration of the drug which prevents growth of bacteria in the wells. 1.2.2 MIC in iron-deficient MH medium

For series [6], the system named is Escherichia coli ATCC 35218. In words: MIC, broth microdilution, iron-deficient MH medium. The conditions noted are these: Escherichia coli, ATCC35218; iron-deficient MH medium (16 mg/L 2,2'-bipyridine); quality control strain; read-out: Antibacterial activity MIC, Escherichia coli ATCC 35218. The series is classed as cell-based. How it is done: as §1, §2, §3, §4
BPL was added to the normal MH medium to obtain a final concentration of 16 mg/L; According to the method in Section 1.2.1, 100 μl of each test sample solution at different concentrations was aspirated to the 1st to 10th well in a 96-well sterile polystyrene plate to obtain the final drug concentrations of 16, 8, 4, 2, 1, 0.5, 0.25, 0.125, 0.06, and 0.03 mg/L, respectively. Then, 100 μl of the test bacterial liquid was added to each well (200 μl per well), and the final concentration of the bacterial liquid was approximately 10^4 CFU/ml. After sealing, it was placed in a 35-37° C. incubator for 18-20 hours for testing the result. The OD600 value was measured by a microplate reader, Minimal Inhibitory Concentration (MIC) of a drug is the lowest concentration of the drug which prevents growth of bacteria in the wells.

Series [7] in a line: Pharmacokinetic test in rats, intravenous. Format: in vivo. The conditions noted are these: SD rats, intravenous 1.0 mg/kg, plasma. The procedure:
2.1.2 Test animals: 6 SD rats, male, weight: 200-220 g.
2.1.3 Drug Preparation: an appropriate amount of the sample was weighed and prepared into a 0.2 mg/mL solution with water for injection.
2.1.4 Administration of the drug: 6 SD rats, male, weight: 200-220 g, were randomly divided into two groups, 3 rats in each group. […] The intravenous dose was 1.0 mg/kg, and the intravenous volume was 5 mL/kg.
Intravenous administration: 2 min, 5 min, 15 min, 30 min, 45 min, 1 h, 1.5 h and 3 h after administration. At the above set time points, 0.3 ml of venous blood was taken from the posterior venous plexus of the rat eye, placed in a heparinized tube, centrifuged at 11,000 rpm for 5 min, then the plasma was separated and stored in a refrigerator at −20° C. All of the rats were fed 2 hours after administration.
After administration, the pharmacokinetic parameters were calculated using a non-compartmental model of WinNonlin 5.3 software (Pharsight, USA).

Series [8] has as its system multidrug-resistant Klebsiella pneumoniae KR15-4 (KPC2). In words: In vivo efficacy in mice systemically infected with multidrug-resistant Klebsiella pneumoniae KR15-4 (KPC2). The conditions noted are these: Klebsiella pneumoniae; Kunming mice, intraperitoneal infection, drug s.c. 0.5 h and 4 h after infection, deaths over 7 days, Bliss method; read-out: ED50 Subcutaneous injection. How it is done: 4.1 Test strains: clinically isolated pathogenic multidrug-resistant Klebsiella pneumoniae KR15-4 (KPC2), provided by Sichuan Primed Shines Bio-tech Co., Ltd.
4.2 Test animals: Kunming mice, age: 4 to 5 weeks, weight: 18 to 22 g, half male, half female, SPF grade.
4.3 Test methods: Mice were randomly divided into several groups, 5 mice for each group, half male and half female, and 4 doses for each test drug: 12.5, 25, 50 and 100 mg/kg. The mice were intraperitoneally injected with 0.5 mL of 3.0×10^6 CFU/mL bacterial suspension for each mouse, and subcutaneously injected with the drug at the designed dose 0.5 h and 4 h after infection. The subcutaneous injection volume was 0.2 ml/20 g mouse weight; the number of deaths in mice was observed and recorded for 7 consecutive days. According to the number of deaths in mice, the half effective dose ED50 was calculated according to the Bliss method using the DAS 1.0 software, edited by Sun Ruiyuan et al.

Each structure is given as a SMILES string. Structures can show the parent of a compound that is named as a salt.

Take `CC(C)C(O/N=C(\C(=O)N[C@@H]1C(=O)N(OS(=O)(=O)O)C1(C)C)c1csc(N)n1)c1cc(=O)c(O)cn1O` (stereo partly drawn) [Compound 12, (3S)-3-((Z)-2-(2-aminothiazol-4-yl)-2-((1-(1,5-dihydroxy-4-oxo-1,4-dihydropyridin-2-yl)methylisopropyloxy)imine)acetamido)-2,2-dimethyl-4-oxoazetidine-1-hydrogen sulfate]: the MIC was less than 0.03 µg/mL in series [1]; 2 µg/mL in series [2]; 0.03 to 0.25 µg/mL in series [3] (Escherichia coli, clinical isolates (ESBLs), read-out: Antibacterial activity MIC, Escherichia coli (4 strains)); 0.25 to 2 µg/mL in series [4]; 0.5 to 1 µg/mL in series [5] (Klebsiella pneumoniae, multi-drug resistant clinical isolates (KPC2), read-out: Antibacterial activity MIC, Klebsiella pneumoniae (4 strains)); less than 0.03 µg/mL in series [6]. For the same compound, the “times more effective than BAL30072 in inhibitory activity against Escherichia coli” value in series [3] (from MIC of Table 2) was 4-32 times. Besides, in series [5] (from MIC of Table 2), the “times more effective than BAL30072 in inhibitory activity against Klebsiella pneumoniae” value was 64-128 times. The “Clearance CL” value in series [7] amounted to 11 ± 5.5 mL/min/kg. Moreover, the “Half-life T1/2” value in series [7] was determined as 27 ± 6.6 min. Moreover, in series [7] (male, rat, in vivo, read-out: Apparent Distribution Volume Vss), the Vd worked out at 0.3 ± 0.03 L/kg. Besides, in series [7] (male, rat, in vivo, read-out: Area Under the Curve AUC0-4), the AUC(0-t) was found to be 1730 ± 697 ng·h/mL. Also, the MRT in series [7] (male, rat, read-out: Residence Time MRT) was determined as 30.6 ± 10.8 min. Further, the ED50 in series [8] was 10.2 mg/kg.

These data come from patent publication US10501454B2, “Monocyclic β-lactam-siderophore conjugate, and preparation method and use thereof” (Shanghai Institute of Materia Medica, Chinese Academy of …, priority 2016, dated 2019).
